This is an account of results in PMC7292393 (PLoS ONE, 2020).

For the experiment, the target named is T1, bovine ubiquitin (Bos taurus, UniProt P0CG53).
T1 construct: native bovine ubiquitin (U6253); purchased Sigma-Aldrich U6253
Put plainly: SPR binding to ubiquitin surface. To be noted: Fig 2J. The procedure: All injections were performed in a Biacore T200 (GE Healthcare, Chicago, IL) at a flow rate of 20 μl/min in running buffer (20 mM Hepes (pH 7.4), 150 mM NaCl, 5 mM MgCl2, 0.0005% Tween 20) at 25°C. CMD200 and HC1500 sensor chips (Zantec Bioanalytics, Duesseldorf, Germany) were used for the primary and secondary SPR screens and for obtaining SPR sensograms shown in Fig 2I and 2J, respectively. SUMO1 surface in CMD-200 sensor chip and HC1500 sensor chip were generated with immobilization levels 10887 and 19639 resonance units (RU), respectively. Ubiquitin surface in HC1500 sensor chip was generated with 6106 RU. Human SUMO1 and bovine ubiquitin biosensors were prepared by standard amine coupling chemistry as follows: An equal volume of 0.1 M N-hydroxysuccinimide (NHS) and 0.4 M ethyl(dimethylaminopropyl) carbodiimide was injected for 7 min at 5 μl/min over a single flow cell. Following this step, human SUMO1 or bovine ubiquitin (100 μg/ml in pH 4.5 acetate buffer) was injected for 15 min, immediately followed by a 7 min injection of 1M ethanolamine (pH 9). […] RUmax was calculated as 8320/MW ratio, where 8320 is AU of human SUMO1 immobilized onto the chip and MW ratio is the ratio of MW (Da) of SUMO1 to flavonoid. […]
On the technique in general: Surface plasmon resonance follows binding to a sensor surface in real time, without labels.

Turning to `O=c1c(O)c(-c2ccc(O)c(O)c2)oc2cc(O)ccc12` [Fisetin, 3,3',4',7-tetrahydroxyflavone], the “SPR binding to bovine ubiquitin” value is “failed to bind to bovine ubiquitin”. Further, the “SPR binding to bovine ubiquitin” value (listed as fisetin) is recorded as “no appreciable binding”.
